Results published in patent US20260308158A1, “TARGETING RNAS ASSOCIATED WITH TAUOPATHIES WITH SMALL MOLECULES” (University of Florida Research Foundation, Incorporated, priority 2023, published 2026).

What was measured:
[1] = Plasma protein binding by equilibrium dialysis; type: in vitro ADME; details: 37° C., 6 h (2 at 5 μM), read-out: free fraction in plasma
Experimental: Plasma and brain binding. Plasma protein binding was determined by equilibrium dialysis using a Thermo Scientific™ RED Device per the manufacturer's protocol. Each sample was prepared by addition of 2 into 100 μL plasma with final concentration of 5 μM (0.1% (v/v) DMSO). 1×PBS was used as dialysis buffer and was added into the buffer chamber. The plate was incubated with shaking at 37° C. for 6 h. The concentration of 2 in the plasma and buffer compartments was determined as described in Quantitation of 2 in Mouse Plasma and Brain. The free fraction was calculated as [buffer]/[plasma].

[2] = test system: DDPAC I17T MAPT mini-gene (exon 10 splicing); assay: 4R/3R MAPT mRNA by RT-qPCR, HeLa cells transfected with DDPAC I17T mini-gene; type: cell-based; details: ASO 0.5 μM
Experimental: (§1) RNA Isolation and Real-Time Quantitative PCR (RT-qPCR). HeLa cells were treated as described in the Luciferase Reporter assay to Study Exon 10 Alternative Splicing. LAN5 cells were seeded in 12-well plates at 0.2×10^6 cells per well, treated with compound or ASO, and incubated for 48 h. Compound stocks prepared in DMSO and ASO stocks prepared in water were diluted in growth medium and added to cells. Total RNA was extracted from cells and analyzed via RT-qPCR to determine levels of 3R and 4R tau mRNA. In brief, the cells were washed with 1×DPBS and then lysed in the well using 300 μL of Lysis Buffer provided in a Quick-RNA MiniPrep kit (Zymo Research), which was used to extract total RNA per the manufacturer's protocol including the on-column DNase I digestion. The concentration of total RNA was measured by NanoDrop 2000 (Thermo Fisher Scientific). Only samples with OD260/OD280>1.8 were carried forward for analysis. Reverse transcription (RT) was carried out on 200 ng of total RNA using a qScript cDNA synthesis kit (QuantaBio) in a total volume of 10 μL according to the manufacturer's protocol. An Applied Biosystems QS5 384-well PCR system was used to complete qPCR reactions with Power SYBR Green Master Mix (Life Technologies), 600 nM each primer (Table S3), 20 ng of cDNA (1 μL of the RT reaction), in a total volume of 33 μL. Technical triplicates (10 μL each) were aliquoted into 384-well qPCR plates (Applied biosystems, 4483285). Subsequent qPCR analysis was performed using an Applied Biosystems QS5 384-well PCR system (software v.1.3.0). 4R/3R ratio were analyzed using ΔΔCt method using Equation 2: […]
(§2) where ΔCt 4R or ΔCt 3R is the difference between the Ct values for the 4R or 3R MAPT mRNA and a housekeeping gene (18S rRNA) in total RNA from cells.

[3] = test system: MAPT exon 10 splicing in LAN5 cells; assay: 4R/3R endogenous MAPT mRNA by RT-qPCR in LAN5 neuroblastoma cells; type: cell-based; details: for PSI10 in all cell lines: ASO, all cell lines of FIGS. 12A-12C (LAN5, HeLa mini-genes, htau primary neurons)
Experimental: as §1, §2

[4] = test system: WT I17T MAPT mini-gene (exon 10 splicing); assay: 4R/3R MAPT mRNA by RT-qPCR, HeLa cells transfected with WT I17T mini-gene; type: cell-based; details: ASO 0.5 μM
Experimental: as §1, §2

LAN5 transcriptome = assay: RNA-seq transcriptome-wide selectivity in LAN5 cells; type: cell-based, human
Experimental: RNA-Seq. LAN5 cells in 12-well plate (~60% confluency) were treated with 2 (1.5 μM), 0.1% (v/v) DMSO (vehicle), 4R-to-3R tau ASO (0.5 μM), or scrambled ASO (0.5 μM) for 48 h. Total RNA was extracted using an RNeasy Mini Kit (Qiagen) per the manufacturer's protocol. Next, rRNA was depleted using NEBNext rRNA depletion modules (E6310L, New England Biosciences) and prepared with NEBNext Ultra II Dir RNA Lib Prep Kit (E7760S, New England Biosciences) according to the manufacturer's protocol. The prepared libraries were processed with NextSeq 500/550 High Output Kit v2.5 (Illumina, 20024907) per the manufacturer's protocol and then sequenced on a NextSeq 500. After sequencing, the BCL files were converted to FASTQ files using basemount/0.12.8.1516 and bcl2fastq/2.17.1.14.^33 The sequencing depth was over 82 million for each sample.
FastQC^34 and RSeQC^35 were used to determine the quality of reads and any overrepresentation of sequences. HISAT2^36 was used to map the reads to the reference human genome (hg19), and the output SAM files were converted to BAM files and sorted by index. Kallisto^37 and NCBI reference sequences (RefSeq)^38 were used for gene quantification to calculate transcripts per million (TPM). Differentially expressed genes were detected with Sleuth^39 and determined by a multiple test corrected p-value<0.05. Splicing event PSI values were quantitated using MISO.^40

[5] = test system: MAPT exon 10 splicing in primary neurons from htau mice; assay: 4R/3R MAPT mRNA by RT-qPCR in primary neurons from htau mice; type: cell-based, human MAPT in htau transgenic mouse neurons; details: 48 h
Experimental: as §1
Isolation and Treatment of Primary Neurons from Humanized tau (hTau) Transgenic Mice. All animal studies were completed as approved by the Scripps Florida Institutional Animal Care and Use Committee. […]

Compound: NC(=O)N1c2ccccc2C=Cc2ccccc21 [Carbamazepine, reference compound]
- fraction unbound at 6 h [1]: 0.377 ± 0.042

Compound: scrambled ASO: scrambled ASO 5′-CTGTCTGACGTTCTTTGT-3′ (SEQ ID NO: 2), negative control (chemistry not given here) [reference compound]
- effect on 4R/3R ratio [2]: not scrambled ASO altered the 4R/3R ratio
- PSI10 in all cell lines [3]: not scrambled ASO was also downregulated
- effect on 4R/3R ratio [4]: not scrambled ASO altered the 4R/3R ratio

Compound: tau ASO: Vivo-Morpholino antisense oligonucleotide targeting the MAPT exon-10-intron junction hairpin, 5′-TGAAGGTACTCACACTGCCGC-3′ (SEQ ID NO: 1) (all phosphorodiamidate morpholino (PMO); Vivo-Morpholino: morpholino with attached delivery moiety, further chemistry not fully specified) [reference compound]
- expression of MAPT gene (LAN5 transcriptome; 2 at 1.5 μM or ASO 0.5 μM): Neither 2 nor the ASO altered the expression of MAPT gene
- alternative splicing of MAPT exons (exon 10) (LAN5 transcriptome; 2 at 1.5 μM or tau ASO 0.5 μM): only one significantly reduced
- genes unchanged, percent (LAN5 transcriptome; tau ASO 0.5 μM, 48 h): 99.97%
- 4R/3R ratio and PSI10 [5]: dose dependent reduction
- effect on 4R/3R ratio [2]: altered the 4R/3R ratio
- reduction of 4R/3R MAPT ratio ([3]; ASO 0.5 μM, LAN5, 48 h): ~ 82%
- PSI10 in all cell lines [3]: also downregulated in all cell lines
- effect on 4R/3R ratio [4]: altered the 4R/3R ratio
